Values of other authors in patent publication US20250364101A1, “Dabigatran Dosing” (Closed Loop Medicine Ltd, priority 2023, published 2025).
Where two headings read alike, the source gives them in different places.

Assays:
[1] = not given; remark: listed apart in the source
[2] = not given; remark: listed apart in the source

SMILES	accumulation of the drug (daily doses of approximately 150-300 mg)	elimination via the kidney as share of total clearance (in vivo) [%]	remainder going into the faeces (oral) [%]	relationship between maximal plasma level and dose administered (single dose)	effect of food on total absorption (with food)	Change in Drug Level Exposure (AUC), increase ([1]; Amiodarone) [% increase]	Change in Drug Level Exposure (AUC) ([1]; CrCl = 30, relative to median CrCl of 69) [fold]	Change in Drug Level Exposure (AUC) ([1]; CrCl = 50, relative to median CrCl of 69) [fold]	Change in Drug Level Exposure (AUC), decrease ([1]; PPIs) [% decrease]	Change in Drug Level Exposure (AUC), increase ([1]; South Asians compared to other ethnicities)	Change in Drug Level Exposure (AUC), increase ([1]; Verapamil) [% increase]	increase in distribution volume (Vd) ([1]; above 80 kg) [% per kg]	Change in activity: bleeding ([1]; coadministration of Asprin, clopidogrel)	Change in Drug Level Exposure (AUC), increase ([1]; females compared to men)	effect of low weight on Cmax ([1]; low weight)	Change in Drug Level Exposure (AUC), increase per year of age ([1]; older compared to 72 yr)	Change in Drug Level Exposure (AUC), increase ([1]; patients with HF)	risk of intracranial bleeds ([2]; compared with adjusted-dose warfarin)	outcome compared with warfarin ([2]; patients with nonvalvular AF)
[H]/N=C(/N)c1ccc(NCc2nc3cc(C(=O)N(CCC(=O)O)c4ccccn4)ccc3n2C)cc1 [dabigatran]	approximately 1.7 fold	80	~90	linear relationship	does not affect	12	1.8	1.3	~13	~26% increase in South Asians compared to other ethnicities	23	0.8	Coadministration will increase chance of bleeding	~9% increase in females compared to men	will increase	0.41% increase per year older compared to 72 yr % per year	~7% increase in patients with HF		
CCCCCCOC(=O)NC(=N)c1ccc(NCc2nc3cc(C(=O)N(CCC(=O)OCC)c4ccccn4)ccc3n2C)cc1 [Dabigatran etexilate]																		small reduction	superior to warfarin
